Data taken from the supplement of paper PMC10307832.

Assays:
Assay in all cases: relative viability (nuclei count vs DMSO), 5 days (fraction); higher = more cells survive
Cediranib + Lapatinib = compound: COc1cc2c(Oc3ccc4[nH]c(C)cc4c3F)ncnc2cc1OCCCN1CCCC1 [Cediranib] + CS(=O)(=O)CCNCc1ccc(-c2ccc3ncnc(Nc4ccc(OCc5cccc(F)c5)c(Cl)c4)c3c2)o1 [Lapatinib] (partner 2 µM)
In short: (§1)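 After 5 days of treatment, lung cancer cells in 1536-well plates were fixed and stained in a single step (final 0.05% Triton X-100, 1% formaldehyde, 1 ug/ml Hoechst) and their nuclei counted on 4× images. Treatment had been applied by pin tool the day after seeding as one drug alone or as a fixed anchor-drug dose with five library-drug doses (not always all listed) in √10 steps. Relative viability is the nuclei count of treated wells divided by that of vehicle wells, and values are medians of duplicate plates.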

Decitabine + Pemetrexed = compound: Nc1ncn([C@H]2C[C@H](O)[C@@H](CO)O2)c(=O)n1 [Decitabine] + Nc1nc2[nH]cc(CCc3ccc(C(=O)N[C@@H](CCC(=O)O)C(=O)O)cc3)c2c(=O)[nH]1 [Pemetrexed] (partner 0.2 µM)
In short: as §1

[1] = compound: O=C(C[C@H]1NCCC[C@@H]1O)Cn1cnc2cc(Br)c(Cl)cc2c1=O (racemic) [Halofuginone] + CS(=O)(=O)N1CCN(Cc2cc3nc(-c4cccc5[nH]ncc45)nc(N4CCOCC4)c3s2)CC1 [Pictilisib] (partner 1 µM)
In short: as §1

[2] = compound: O=C(C[C@H]1NCCC[C@@H]1O)Cn1cnc2cc(Br)c(Cl)cc2c1=O (racemic) [Halofuginone] + Nc1nc2[nH]cc(CCc3ccc(C(=O)N[C@@H](CCC(=O)O)C(=O)O)cc3)c2c(=O)[nH]1 [Pemetrexed] (partner 0.2 µM)
In short: as §1

Cell Line	relative viability (Cediranib + Lapatinib; first compound 0.04 µM)	relative viability (Cediranib + Lapatinib; first compound 0.1265 µM)	relative viability (Cediranib + Lapatinib; first compound 0.4 µM)	relative viability (Cediranib + Lapatinib; first compound 1.265 µM)	relative viability (Cediranib + Lapatinib; first compound 4 µM)	relative viability (Decitabine + Pemetrexed; first compound 0.04 µM)	relative viability (Decitabine + Pemetrexed; first compound 0.1265 µM)	relative viability (Decitabine + Pemetrexed; first compound 0.4 µM)	relative viability (Decitabine + Pemetrexed; first compound 1.265 µM)	relative viability (Decitabine + Pemetrexed; first compound 4 µM)	relative viability ([1]; first compound 0.001 µM)	relative viability ([1]; first compound 0.003162 µM)	relative viability ([1]; first compound 0.01 µM)	relative viability ([1]; first compound 0.03162 µM)	relative viability ([1]; first compound 0.1 µM)	relative viability ([2]; first compound 0.001 µM)	relative viability ([2]; first compound 0.003162 µM)	relative viability ([2]; first compound 0.01 µM)	relative viability ([2]; first compound 0.03162 µM)	relative viability ([2]; first compound 0.1 µM)
NCI-H1734	0.913	0.989	1.07	0.826	1.21	0.345	0.323	0.293	0.262	0.284	0.46	0.492	0.403	0.449	0.327	0.408	0.438	0.401	0.441	0.488
NCI-H1755	1.14	0.778	1.01	1.05	0.941	0.477	0.376	0.406	0.419	0.365	0.478	0.468	0.445	0.493	0.287	0.418	0.469	0.413	0.423	0.484
NCI-H1792	0.792	0.628	0.863	0.875	0.735	0.715	0.894	0.587	0.309	0.255	0.336	0.228	0.3	0.34	0.243	0.922	0.813	0.53	0.891	0.391
NCI-H1793	0.838	0.693	0.654		0.742	0.692	0.875	0.511	0.44	0.303	0.329	0.216	0.33	0.381	0.228	0.906	0.734	0.7	0.843	0.515
NCI-H1915	1.01	0.731	0.924	0.969	0.983	0.274	0.225	0.222	0.191	0.176	0.917	1.04	0.915	0.861	0.882	0.499	0.546	0.513	0.392	0.465
NCI-H1944	0.969	0.8	0.78	0.705	0.908	0.438	0.448	0.288	0.228	0.211	0.317	0.398	0.347	0.35	0.307	0.611	0.62	0.579	0.586	0.496
NCI-H1975	1.06	1.26	0.801	0.905	0.835	0.247	0.205	0.182	0.209	0.188	0.319	0.298	0.31	0.225	0.106	0.281	0.297	0.274	0.263	0.146
NCI-H1993	0.8	0.675	0.815	0.755	0.887	0.542	0.583	0.607	0.506	0.403	0.788	0.749	0.891	0.807	0.803	0.664	0.577	0.564	0.652	0.508
